Assay in all cases: Preemergent control of plant species
The subject of assay [1] is yellow foxtail. The format is in vivo, Setaria lutescens. As to conditions: Setaria, pre-emergence, 336 h; 0.25 lb/acre; read-out: percent preemergent control. Put shortly:
(§1)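 Seeds planted in good agricultural soil beds; active ingredients then applied to the bed surface as aqueous emulsion at listed rates. Beds kept two weeks in greenhouse with watering. Control scored against water-treated beds.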

Assay [2] relates to wild oats. The format is in vivo. As to conditions: Avena fatua, pre-emergence, 336 h; 0.25 lb/acre; read-out: percent preemergent control. The method in brief: as §1
For assay [3], the system named is barnyardgrass. The format is in vivo, Echinochloa crusgalli. To be noted: Echinochloa crus-galli, pre-emergence, 336 h; 0.25 lb/acre; read-out: percent preemergent control. The method in brief: as §1
The test system of assay [4] is yellow nutsedge. The format is in vivo, Cyperus esculentus. To be noted: Cyperus, pre-emergence, 336 h; 0.25 lb/acre; read-out: percent preemergent control. The method in brief:
as §1

The test system of assay [5] is annual morning glory. Format: in vivo, Ipomoea spp. To be noted: Ipomoea, pre-emergence, 336 h; 0.25 lb/acre; read-out: percent preemergent control. Put shortly:
as §1

Assay [6] deals with soybean. The format is in vivo, Glycine max. As to conditions: Glycine max, pre-emergence, 336 h; 0.25 lb/acre; read-out: percent preemergent control. Put shortly: as §1
Assay [7] relates to sugar beet. The format is in vivo, Beta saccharifera. As to conditions: Beta vulgaris, pre-emergence, 336 h; 0.25 lb/acre; read-out: percent preemergent control. The method in brief: as §1
Assay [8] relates to jimsonweed. The format is in vivo, Datura stramonium. To be noted: Datura stramonium, pre-emergence, 336 h; 0.25 lb/acre; read-out: percent preemergent control. The method in brief:
as §1

The test system of assay [9] is velvetleaf. The format is in vivo, Abutilon theophrasti. To be noted: Abutilon theophrasti, pre-emergence, 336 h; 0.25 lb/acre; read-out: percent preemergent control. The method in brief:
as §1

Assay [10] deals with corn. Format: in vivo, Zea mays. To be noted: Zea mays, pre-emergence, 336 h; 0.25 lb/acre; read-out: percent preemergent control. The method in brief:
as §1

For assay [11], the system named is sorghum. Format: in vivo, Sorghum vulgare. To be noted: Sorghum, pre-emergence, 336 h; 0.25 lb/acre; read-out: percent preemergent control. The method in brief:
as §1

Assay [12] has as its system wheat. The format is in vivo, Triticum aestivum. To be noted: Triticum aestivum, pre-emergence, 336 h; 0.25 lb/acre; read-out: percent preemergent control. Put shortly:
as §1

In assay [13] the test system is cotton. The format is in vivo, Gossypium spp. As to conditions: Gossypium hirsutum, pre-emergence, 336 h; 0.25 lb/acre; read-out: percent preemergent control. The method in brief:
as §1

Assay [14] relates to rape. Format: in vivo, Brassica napus. To be noted: Brassica napus, pre-emergence, 336 h; 0.25 lb/acre; read-out: percent preemergent control. Put shortly: as §1
Assay [15] has as its system rice. Format: in vivo, Oryza sativa. To be noted: Oryza sativa, pre-emergence, 336 h; 0.25 lb/acre; read-out: percent preemergent control. The method in brief:
as §1

For assay [16], the system named is johnson grass. Format: in vivo, Sorghum halepense. To be noted: Sorghum halepense, pre-emergence, 336 h; 0.25 lb/acre; read-out: percent preemergent control. Put shortly:
as §1

SMILES strings stand for the structures.

Experimental findings from patent US4740233A, “Substituted 1,2,4-triazolo[1,5-a]-pyrimidine-2-sulfonamides and compositions and methods of controlling undesired vegetation and suppressing the nitrification of ammonium nitrogen in soil” (The Dow Chemical Company, priority 1986, dated 1988) are described below.

Regarding `Cc1ccn2nc(S(=O)(=O)Nc3c(C)cccc3C#N)nc2n1` [Compound 165], the pest or weed control at 280.212 g/ha in assay [1] is 90%; in assay [2], 0%; in assay [3], 60%; in assay [4], 90%; in assay [5], 60%; in [8], 90%. The pest or weed control at 280.212 g/ha stood at 30% in assay [9] and 0% in assay [16]. In addition, the plant injury at 280.212 g/ha in assay [6] worked out at 10%; in [7], 90%; in assay [10] it was 0%; in assay [11] it was 60%; in [12], 0%; in assay [13], 90%. For the same compound, the plant injury at 280.212 g/ha in assay [14] turned out to be 75%; in [15], 0%.
With `CC(=O)c1cccc(C)c1NS(=O)(=O)c1nc2nc(C)ccn2n1` [Compound 166], the pest or weed control at 280.212 g/ha in assay [1] is 80%; in [2], 30%; in assay [3], 80%; in assay [4] it was 100%; in assay [5] it was 95%; in assay [8], 90%. The pest or weed control at 280.212 g/ha was 100% in assay [9] and 20% in assay [16]. The plant injury at 280.212 g/ha worked out at 80% in [6]; 100% in [7]; 10% in assay [10]; 80% in assay [11]; 20% in assay [12]; 100% in [13]. The plant injury at 280.212 g/ha in assay [14] is 100%; in assay [15], 40%.
In the case of `CCOC(=O)N(c1c(Cl)cccc1Cl)S(=O)(=O)c1nc2nc(C)ccn2n1` [Compound 272], the pest or weed control at 280.212 g/ha in [1] was 90%; in assay [2], 0%; in assay [3], 60%; in [4], 100%; in assay [5], 40%; in assay [8], 90%. The pest or weed control at 280.212 g/ha in assay [9] worked out at 100%; in assay [16], 40%. Besides, the plant injury at 280.212 g/ha in assay [6] amounted to 0%; in assay [7], 100%; in assay [10], 0%; in [11], 40%; in [12] it was 0%; in [13], 80%. The plant injury at 280.212 g/ha in assay [14] turned out to be 100%; in assay [15], 30%.
Consider `Cc1cccc([N+](=O)[O-])c1NS(=O)(=O)c1nc2nccc(C)n2n1` [Compound 184], for which the pest or weed control at 280.212 g/ha in [1] turned out to be 80%; in assay [2], 0%; in assay [3], 0%; in assay [4] it was 80%; in assay [5], 80%; in [8], 98%. In addition, the pest or weed control at 280.212 g/ha in assay [9] was 100%; in [16] it was 30%. Also, the plant injury at 280.212 g/ha in [6] was found to be 50%; in assay [7], 100%; in assay [10], 0%; in assay [11], 95%; in assay [12] it was 0%; in assay [13] it was 100%. Further, the plant injury at 280.212 g/ha is 98% in [14] and 0% in assay [15].
For `Cc1ccn2nc(S(=O)(=O)N(C(=O)C3CCCCC3)c3c(F)cccc3F)nc2n1` [Compound 291], the pest or weed control at 280.212 g/ha in [1] was 100%; in assay [2], 70%; in [3], 100%; in assay [4], 100%; in [5], 90%; in assay [8], 100%. Moreover, the pest or weed control at 280.212 g/ha in [9] and in assay [16] was 100% in each case. The plant injury at 280.212 g/ha in assay [6] was determined as 20%; in assay [7], 100%; in assay [10], 55%; in assay [11] it was 100%; in assay [12], 100%; in [13], 100%. For the same compound, the plant injury at 280.212 g/ha in assay [14] and in assay [15] was 100% in each case.
With `Cc1ccn2nc(S(=O)(=O)N(C(=O)c3ccccc3)c3c(F)cccc3F)nc2n1` [Compound 290], the pest or weed control at 280.212 g/ha in assay [1] came out at 100%; in assay [2] it was 70%; in assay [3], 100%; in assay [4], 80%; in [5], 100%; in assay [8], 100%. The pest or weed control at 280.212 g/ha in assay [9] and in assay [16] was 100% in each case. Moreover, the plant injury at 280.212 g/ha in assay [6] was 70%; in [7], 100%; in assay [10], 90%; in assay [11], 100%; in [12], 95%; in assay [13], 100%. For the same compound, the plant injury at 280.212 g/ha in assay [14] and in assay [15] was 100% in each case.
Turning to `COc1nc2nc(S(=O)(=O)Nc3c(F)cccc3F)nn2cc1C` [Compound 214], the pest or weed control at 280.212 g/ha in assay [1], in [2], in assay [3], in assay [4], in [5] and in assay [8] was 100% throughout. Also, the pest or weed control at 280.212 g/ha in [9] and in assay [16] was 100% each time. For the same compound, the plant injury at 280.212 g/ha in assay [6], in [7], in assay [10], in assay [11], in assay [12] and in assay [13] was 100% each time. For the same compound, the plant injury at 280.212 g/ha in assay [14] and in assay [15] was 100% each time.
For `CCOCCOC(=O)c1cccc(C)c1NS(=O)(=O)c1nc2nc(C)cc(C)n2n1` [Compound 72], the pest or weed control at 280.212 g/ha was found to be 50% in assay [1]; 90% in [2]; 30% in [3]; 100% in [4]; 10% in assay [5]; 100% in assay [8]. For the same compound, the pest or weed control at 280.212 g/ha was 60% in assay [9] and 50% in assay [16]. Moreover, the plant injury at 280.212 g/ha in [6] came to 90%; in assay [7], 90%; in assay [10], 90%; in assay [11] it was 80%; in assay [12], 90%; in assay [13], 40%. Also, the plant injury at 280.212 g/ha in assay [14] was determined as 100%; in [15] it was 70%.
Regarding `COC(=O)c1cccc(F)c1NS(=O)(=O)c1nc2nc(OC)c(C)cn2n1` [Compound 215], the pest or weed control at 280.212 g/ha in assay [1], in assay [2], in [3], in [4], in assay [5] and in [8] was 100% each time. The pest or weed control at 280.212 g/ha in assay [9] and in assay [16] was 100% throughout. The plant injury at 280.212 g/ha in [6], in [7], in assay [10], in assay [11], in assay [12] and in [13] was 100% each time. The plant injury at 280.212 g/ha in assay [14] and in assay [15] was 100% each time.
